For two compounds, Normal melting temperature results are on record in the NIST ThermoML archive (doi:10.1016/j.jct.2019.07.003).

Numbers after ± are expanded uncertainties.

For this data set the following is noted: Crystal; DTA.

Take `[Cl-].[Cs+]` [cesium chloride]: the Normal melting temperature amounted to 645 ± 1 °C.

Turning to `[F-].[Li+]` [lithium fluoride], the Normal melting temperature was 844 ± 1 °C.
